# Measured values: patent US4005213A, “2,5-Substituted-1,3,4-thiadiazoles as fungicides” (Schering Aktiengesellschaft, priority 1968, dated 1977)
# Assays:
# [1] = tested on: Stemphylium ilicis; assay: Agar test, Stemphylium ilicis (Example 7); type: cell-based; details: 10 ppm in malt extract agar, 5 days at 22° C.; control 100
# Protocol: (§1) The fungicidal action of the agents according to the invention was tested in artificial nutrient media against plant-pathogenic fungi in Petri dishes (agar test). The procedure was to sterilize the medium consisting of 2% malt extract and 1.5% agar-agar powder. Before the solidification of the medium, the active substances were added to it, mixing thoroughly, so that the medium received 10 parts of active substance per million (ppm). After the solidification of the medium, the latter was inoculated with a platinum dropper which contained 100 spores each of the fungi to be tested, and after 5 days at 22° C., an evaluation was made by measuring the diameter of the colonies in mm.
# [2] = tested on: Aspergillus niger; assay: Agar test, Aspergillus niger (Example 7); type: cell-based; details: 10 ppm in malt extract agar, 5 days at 22° C.; control 100
# Protocol: as §1
# [3] = tested on: Pythium ultimum; assay: Limit concentration of soil-fungicidal effectiveness, Pythium ultimum infested soil, peas (Example 1); type: in vivo; details: Globisporangium ultimum, 20 to 23 days, 22°-25° C., germination at least 90% vs steamed soil
# Protocol: Limit concentrations of the soil-fungicidal effectiveness at homogeneous mixture of the products with the infested soil. Basic condition in the evaluation are a sound root formation without fungus necroses and germination of the seed of at least 90% compared with the result obtained in steamed soil. Per concentration there were seeded 25 grains of peas of the variety "Miracle of Kelvedon" (marrow pea) without a waiting period. the cultivation time in the tests was 20 to 23 days at a temperature of 22°-25° C. Four commercial products were included in the test series.
# Pythium ultimum: Steamed compost soil was inoculated with mycelium of Pythium ultimum
# [4] = tested on: Meloidogyne incognita; assay: Nematocidal action against root gall nematodes, cucumber (Example 8); type: in vivo; details: reduction of attack, 30 days
# Protocol: The products as 20% powder preparations were homogeneously admixed with a compost soil heavily infested by root gall nematodes. Without a waiting period, 20 cucumber seeds per concentration were seeded. After a cultivation time of 30 days at a temperature of 23°-25° C., the nematocidal action was evaluated by counting the root galls formed in the waterbath. The following table states the reduction of attack in percent. In the control, an average of 90 root galls per seedling had formed.
# [5] = tested on: Pythium ultimum; assay: Pea test in soil inoculated with Pythium ultimum (Example 2); type: in vivo; design: key to Root evaluation (1-4): 4 = white roots, no necroses … 1 = severe necroses, roots rotted; details: for Root evaluation (1-4): 3 weeks; for Number of sound peas after 3 wks.: 25 grains seeded
# Protocol: Steamed compost soil was inoculated with mycelium of Pythium ultimum. […] The following table lists the number of germinated sound peas, the weight of the fresh plant, and a root evaluation after a cultivation period of 3 weeks at 22°-25° C.
# 4 = white roots, without fungus necroses
# 3 = white roots, slight fungus necroses
# 2 = brown roots, more intense fungus necroses
# 1 = severe fungus necroses, roots rotted
# [6] = tested on: Rhizoctonia solani; assay: Pea test in soil inoculated with Rhizoctonia solani (Example 3); type: in vivo; details: for Root evaluation (1-4): 3 weeks; for Number of sound peas after 3 wks.: 25 grains seeded
# Excerpt: Steamed compost soil was inoculated with mycelium of Rhizoctonia solani. After homogeneous mixture of the products with the infested soil, the products were present in the form of 20% powder preparations, the seeding of 25 grains of marrow peas of the variety Miracle of Kelvedon per concentration was effected without waiting period in clay dishes holding 1 liter of soil. The table lists the number of germinated sound peas, the weight of the fresh plant, and a root evaluation after a cultivation period of 3 weeks at 22°-25° C.
# [7] = tested on: Fusarium oxysporum f. callistephi; assay: Soil inoculated with Fusarium oxysporum f. callistephi, Callistephus chinensis host plants (Example 5); type: in vivo; details: four seedlings per concentration
# Excerpt: Steamed compost soil was inoculated with a spore suspension of Fusarium oxysporum f. callistephi. After homogeneous mixture of the products with the infested soil, the products were present as 20% powder preparations, and after a waiting period of 8 days, there were set out per concentration four seedlings of Callistephus chinensis, master aster "Sun Ray" as host plants.
# [8] = 40 mg active substance per liter of soil
# [9] = 60 mg active substance per liter of soil
# [10] = 10 mg active ingr. per liter of soil
# [11] = 20 mg active ingr. per liter of soil
# [12] = 30 mg active ingr. per liter of soil
# [13] = 200 mg active ingr. per liter of soil
# [14] = 50 mg active ingr. per liter of soil
# [15] = 100 mg active ingr. per liter of soil
smiles,measurement,setting,value
"CCS(=O)(=O)c1nnc(C(Cl)(Cl)Cl)s1 [Compound 22, 2-trichloromethyl-5-ethylsulfonyl-1,3,4-thiadiazole]","diameter of the colonies, Stemphylium ilicis",[1],0 mm
same,"diameter of the colonies, Aspergillus niger",[2],0 mm
same,minimal effective concentration,[3],50 µg/mL
"CCCCCCCCS(=O)(=O)c1nnc(C(Cl)(Cl)Cl)s1 [Compound 29, 2-trichloromethyl-5-octylsulfonyl-1,3,4-thiadiazole]","diameter of the colonies, Stemphylium ilicis",[1],0 mm
same,"diameter of the colonies, Aspergillus niger",[2],19 mm
same,minimal effective concentration,[3],> 200 µg/mL
"CCCS(=O)(=O)c1nnc(C(Cl)Cl)s1 [Compound 19, 2-dichloromethyl-5-propylsulfonyl-1,3,4-thiadiazole]","diameter of the colonies, Stemphylium ilicis",[1],0 mm
same,Nematocidal action in % (Meloidogyne incognita),[4]; [8],72%
same,Nematocidal action in % (Meloidogyne incognita),[4]; [9],82%
same,"diameter of the colonies, Aspergillus niger",[2],0 mm
same,minimal effective concentration,[3],100 µg/mL
"CCCCCCC[S+]([O-])c1nnc(C(Cl)(Cl)Cl)s1 (stereo not drawn) [Compound 13, 2-trichloromethyl-5-heptylsulfinyl-1,3,4-thiadiazole]","diameter of the colonies, Stemphylium ilicis",[1],0 mm
same,"diameter of the colonies, Aspergillus niger",[2],0 mm
same,minimal effective concentration,[3],> 200 µg/mL
"CCCCC[S+]([O-])c1nnc(C(Cl)Cl)s1 (stereo not drawn) [Compound 7, 2-dichloromethyl-5-amylsulfinyl 1,3,4-thiadiazole]","diameter of the colonies, Stemphylium ilicis",[1],0 mm
same,"diameter of the colonies, Aspergillus niger",[2],0 mm
same,minimal effective concentration,[3],> 200 µg/mL
"CS(=O)(=O)c1nnc(C(Br)Br)s1 [Compound 32, 2-dibromomethyl-5-methylsulfonyl-1,3,4-thiadiazole]","diameter of the colonies, Stemphylium ilicis",[1],0 mm
same,"diameter of the colonies, Aspergillus niger",[2],0 mm
same,minimal effective concentration,[3],20 µg/mL
"CCC[S+]([O-])c1nnc(C(Cl)(Cl)Cl)s1 (stereo not drawn) [Compound 10, 2-trichloromethyl-5-propylsulfinyl-1,3,4-thiadiazole]","diameter of the colonies, Stemphylium ilicis",[1],0 mm
same,"diameter of the colonies, Aspergillus niger",[2],0 mm
same,minimal effective concentration,[3],100 µg/mL
"CS(=O)(=O)c1nnc(CCl)s1 [Compound 15, 2-chloromethyl-5-methylsulfonyl-1,3,4-thiadiazole]",Root evaluation (1-4),[5]; [10],4
same,Root evaluation (1-4),[5]; [11],4
same,Root evaluation (1-4),[5]; [12],4
same,minimal effective concentration,[3],10 µg/mL
"CS(=O)(=O)c1nnc(CBr)s1 [Compound 30, 2-bromomethyl-5-methylsulfonyl-1,3,4-thiadiazole]",Root evaluation (1-4),[5]; [10],1
same,Number of sound peas after 3 wks.,[5]; [10],21
same,Root evaluation (1-4),[5]; [11],4
same,Root evaluation (1-4),[5]; [12],4
same,minimal effective concentration,[3],20 µg/mL
"CC[S+]([O-])c1nnc(C(Cl)(Cl)Cl)s1 (stereo not drawn) [Compound 9, 2-trichloromethyl-5-ethylsulfinyl-1,3,4-thiadiazole]","diameter of the colonies, Stemphylium ilicis",[1],0 mm
same,"diameter of the colonies, Aspergillus niger",[2],0 mm
same,minimal effective concentration,[3],200 µg/mL
same,Root evaluation (1-4),[6]; [10],4
same,Root evaluation (1-4),[6]; [11],4
same,Root evaluation (1-4),[6]; [12],4
"CCCS(=O)(=O)c1nnc(C(Cl)(Cl)Cl)s1 [Compound 23, 2-trichloromethyl-5-propylsulfonyl-1,3,4-thiadiazole]","diameter of the colonies, Stemphylium ilicis",[1],0 mm
same,"diameter of the colonies, Aspergillus niger",[2],0 mm
same,minimal effective concentration,[3],150 µg/mL
same,Root evaluation (1-4),[6]; [10],1
same,Root evaluation (1-4),[6]; [11],3
same,Root evaluation (1-4),[6]; [12],4
"C[S+]([O-])c1nnc(C(Cl)(Cl)Cl)s1 (stereo not drawn) [Compound 8, 2-trichloromethyl-5-methylsulfinyl-1,3,4-thiadiazole]",Root evaluation (1-4),[5]; [10],1
same,Root evaluation (1-4),[5]; [11],4
same,Root evaluation (1-4),[5]; [12],4
same,"diameter of the colonies, Stemphylium ilicis",[1],0 mm
same,"diameter of the colonies, Aspergillus niger",[2],0 mm
same,minimal effective concentration,[3],20 µg/mL
same,Root evaluation (1-4),[6]; [10],4
same,Root evaluation (1-4),[6]; [11],4
same,Root evaluation (1-4),[6]; [12],4
"CCCCS(=O)(=O)c1nnc(C(Cl)(Cl)Cl)s1 [Compound 25, 2-trichloromethyl-5-butylsulfonyl-1,3,4-thiadiazole]","diameter of the colonies, Stemphylium ilicis",[1],0 mm
same,"diameter of the colonies, Aspergillus niger",[2],0 mm
same,minimal effective concentration,[3],> 200 µg/mL
"CCCCCS(=O)(=O)c1nnc(C(Cl)(Cl)Cl)s1 [Compound 26, 2-trichloromethyl-5-amylsulfonyl-1,3,4-thiadiazole]","diameter of the colonies, Stemphylium ilicis",[1],0 mm
same,"diameter of the colonies, Aspergillus niger",[2],0 mm
same,minimal effective concentration,[3],> 200 µg/mL
"CC(C)S(=O)(=O)c1nnc(C(Cl)(Cl)Cl)s1 [Compound 24, 2-trichloromethyl-5-isopropylsulfonyl-1,3,4-thiadiazole]","diameter of the colonies, Stemphylium ilicis",[1],0 mm
same,"diameter of the colonies, Aspergillus niger",[2],0 mm
same,minimal effective concentration,[3],150 µg/mL
"CC[S+]([O-])c1nnc(C(Cl)Cl)s1 (stereo not drawn) [Compound 4, 2-dichloromethyl-5-ethylsulfinyl 1,3,4-thiadiazole]",Nematocidal action in % (Meloidogyne incognita),[4]; [8],96%
same,Nematocidal action in % (Meloidogyne incognita),[4]; [9],99%
same,minimal effective concentration,[3],100 µg/mL
"CCC[S+]([O-])c1nnc(C(Cl)Cl)s1 (stereo not drawn) [Compound 5, 2-dichloromethyl-5-propylsulfinyl-1,3,4-thiadiazole]",Nematocidal action in % (Meloidogyne incognita),[4]; [8],90%
same,Nematocidal action in % (Meloidogyne incognita),[4]; [9],98%
same,minimal effective concentration,[3],100 µg/mL
"CCCCCCCS(=O)(=O)c1nnc(C(Cl)(Cl)Cl)s1 [Compound 28, 2-trichloromethyl-5-heptysulfonyl-1,3,4-thiadiazole]","diameter of the colonies, Stemphylium ilicis",[1],0 mm
same,"diameter of the colonies, Aspergillus niger",[2],0 mm
same,minimal effective concentration,[3],> 200 µg/mL
"CCS(=O)(=O)c1nnc(C(Cl)Cl)s1 [Compound 18, 2-dichloromethyl-5-ethylsulfonyl-1,3,4-thiadiazole]","diameter of the colonies, Stemphylium ilicis",[1],0 mm
same,Nematocidal action in % (Meloidogyne incognita),[4]; [8],61%
same,Nematocidal action in % (Meloidogyne incognita),[4]; [9],90%
same,"diameter of the colonies, Aspergillus niger",[2],0 mm
same,minimal effective concentration,[3],> 200 µg/mL
"CCCC[S+]([O-])c1nnc(C(Cl)(Cl)Cl)s1 (stereo not drawn) [Compound 12, 2-trichloromethyl-5-butylsulfinyl-1,3,4-thiadiazole]","diameter of the colonies, Stemphylium ilicis",[1],0 mm
same,"diameter of the colonies, Aspergillus niger",[2],0 mm
same,minimal effective concentration,[3],200 µg/mL
"O=C1C2CC=CCC2C(=O)N1SC(Cl)(Cl)Cl (stereo not drawn) [N-(trichloromethylthio)-cyclohex-4-ene-1,2-dicarboximide]",Root evaluation (1-4),[5]; [13],1
same,Number of sound peas after 3 wks.,[5]; [13],13
same,No. of attacked plants after 3 weeks,[7]; [14],4
same,No. of attacked plants after 3 weeks,[7]; [15],4
same,No. of attacked plants after 3 weeks,[7]; [13],4
"CCCCCCCC[S+]([O-])c1nnc(C(Cl)(Cl)Cl)s1 (stereo not drawn) [Compound 14, 2-trichloromethyl-5-octylsulfinyl-1,3,4-thiadiazole]",minimal effective concentration,[3],> 200 µg/mL
"CCCCCCS(=O)(=O)c1nnc(C(Cl)(Cl)Cl)s1 [Compound 27, 2-trichloromethyl-5-hexylsulfonyl-1,3,4-thiadiazole]","diameter of the colonies, Stemphylium ilicis",[1],0 mm
same,"diameter of the colonies, Aspergillus niger",[2],0 mm
same,minimal effective concentration,[3],> 200 µg/mL
"CC(C)C[S+]([O-])c1nnc(C(F)(F)F)s1 (stereo not drawn) [Compound 37, 2-trifluoromethyl-5-isobutylsulfinyl-1,3,4-thiadiazole]",minimal effective concentration,[3],30 µg/mL
"O=[N+]([O-])c1c(Cl)c(Cl)c(Cl)c(Cl)c1Cl [Pentachloronitrobenzene, reference compound]",Root evaluation (1-4),[6]; [14],1
same,Number of sound peas after 3 wks.,[6]; [14],4
same,Root evaluation (1-4),[6]; [15],4
same,Number of sound peas after 3 wks.,[6]; [15],25
